According to patent US20190015335A1, “HEPATOPROTECTIVE PARTICLES AND SYSTEMS AND METHODS OF USE THEREOF” (South Dakota Board of Regents, priority 2017, published 2019):
One block for each compound: values may come before it.

Columns and labels:
AML12 cells = assay: MTT assay of AML12 cell survival after doxorubicin; assay type: cell-based, mouse; conditions: FIG. 5
Procedure: (§1) MTT assay was performed to quantify AML12 cell survival after 24-hour exposure to 10 μM doxorubicin (DOX). The cells were pretreated with SFN or with MIL-88A-SFN. Control cells include those incubated with DOX without pretreatment, those incubated with MIL-88A-SFN alone without incubation with DOX, and those incubated with phosphate buffered saline (PBS). The activities of caspases and CYP1A1/CYP1B1 of these cells were also measured.

[1] = tested on: caspase 3/7 and caspase 9 in AML12 cells; assay: Caspase 3/7 and caspase 9 activity in AML12 cells after doxorubicin; assay type: cell-based, mouse; conditions: FIG. 6
Procedure: as §1

[2] = tested on: CYP1A1/CYP1B1 in AML12 cells; assay: CYP1A1/CYP1B1 activity in AML12 cells after doxorubicin; assay type: cell-based, mouse; conditions: FIG. 7
Procedure: as §1

B16F1 tumor = assay: Tumor volume in mice bearing B16F1 tumor, DOX with or without pretreatment; assay type: in vivo; conditions: DOX 10 mg per kg i.v. at day 1, with or without pretreatment, vs PBS only, FIG. 9
[3] = tested on: alanine aminotransferase (ALT) activity in blood serum; assay: ALT activity in blood serum of mice bearing B16F1 tumor (DOX); assay type: in vivo
Procedure: (§2) Mice bearing a B16F1 tumor were intravenously administered through the tail vein in different groups of eight: (1) pretreatment with 25 mg of MIL-88A-SFN per kg of mouse at day 0 (corresponding to 3 mg SFN per kg of mouse according to the loading capacity of SFN in MIL-88A), followed by DOX at day 1 at 10 mg per kg of mouse; (2) pretreatment with SFN at 3 mg per kg of mouse at day 0, followed by DOX at day 1 at 10 mg per kg of mouse; (3) PBS injected at day 0, followed by DOX at day 1 at 10 mg per kg of mouse; and (4) PBS injected at both day 0 and day 1. Liver and blood samples were collected and analyzed to identify liver damage and morphology.

[4] = tested on: caspase 3/7 in liver tissues; assay: Caspase 3/7 activity in liver tissues of mice bearing B16F1 tumor (DOX); assay type: in vivo
Procedure: as §2

[5] = tested on: CYP1A1/CYP1B1 in liver tissues; assay: CYP1A1/CYP1B1 activity in liver tissues of mice bearing B16F1 tumor (DOX); assay type: in vivo
Procedure: as §2

liver tissues = assay: Morphological microscopic analysis of liver tissues (DOX); assay type: in vivo, mice
Procedure: as §2

[6] = tested on: alanine aminotransferase (ALT) activity in blood serum; assay: ALT activity in blood serum of mice bearing B16F1 tumor (DTIC); assay type: in vivo; conditions: DTIC 120 mg per kg, 4 cycles, FIG. 16
Procedure: (§3) Mice bearing B16F1 tumor were intravenously administered through the tail vein in different groups of eight: (1) pretreatment with PLGA-SBN (corresponding to 10 mg SBN per kg of mouse), followed by dacarbazine (DTIC) on the next day at a dose of 120 mg per kg mouse; (2) pretreatment with SBN (10 mg per kg), followed by DTIC on the next day at a dose of 120 mg per kg mouse; (3) PBS, followed by DTIC on the next day at a dose of 120 mg per kg mouse; (4) pretreatment with plain PLGA and free (non-encapsulated) SBN (10 mg per kg of mouse), followed by PBS on the next day; and (5) PBS injected at both days (once per day). Liver and blood samples were collected and analyzed to identify liver damage and morphology.

bilirubin in blood serum = assay: Bilirubin concentration in blood serum of mice bearing B16F1 tumor (DTIC); assay type: in vivo; conditions: DTIC 120 mg per kg, 4 cycles, FIG. 17
Procedure: as §3

[7] = tested on: caspase 3 in liver tissues; assay: Western blot of pro-caspase 3 and active caspase 3 in liver tissues (DTIC); assay type: in vivo, mice; conditions: DTIC 120 mg per kg, 4 cycles, FIG. 18
Procedure: as §3

[8] = tested on: GST activity in AML12 cells; assay: GST activity assay in AML12 cells; assay type: cell-based, mouse; conditions: 24 and 48 hours, 10 μM SFN, FIG. 4
Procedure: The effects of SFN (10 μM), MIL-88A MOF loaded with SFN (denoted as MIL-88A-SFN, 10 μM SFN final concentration), or a corresponding amount of unloaded MIL-88A MOF on the GST activity in AML12 cells were measured at 12, 24, or 48 hours after the treatment. The GST activity assay was performed in the presence of glutathione and 1-chloro-2,4-dinitrobenzene (a GST substrate). Measurements were performed in quadruplicate.

[9] = tested on: GSTP1 and GSTA3 in B16F1 melanoma tumor tissues; assay: Western blot of GST expression in tumor tissues of mice bearing B16F1 tumor; assay type: in vivo; conditions: i.v., day 1 and day 2, FIG. 8B
Procedure: Mice bearing B16F1 tumor were intravenously administered with SFN or MIL-88A-SFN at a dose of 10 mg SFN per kg animal, through the tail vein in groups of eight. The expression levels of GSTP1 and GSTA3 in the liver and tumor tissues were measured by western blot at 24 and 48 h following the intravenous administration. Tissues from the groups of mice treated with PBS or MIL-88A were also analyzed.

[10] = tested on: GSTP1, GSTA3 and NQO1 in AML12 cells; conditions: 10 μM SFN, FIG. 3
Procedure: To validate the protective effect of SFN on a mouse hepatocyte cell line AML12, the expression levels of two glutathione-S-transferase (GST) isoforms, P1 and A3 (denoted as GSTP1 and GSTA3, respectively) and NAD(P)H:quinone oxidoreductase (NQO1), were quantified using western blot analysis after incubating the AML12 cells with SFN for 12, 24, and 36 hours. Beta-actin was used as a loading control.

[11] = pretreatment then 10 μM DOX 24 h

caspase activity ([1]; 10 μM DOX alone 24 h): highest caspase activity
level of CYP1A1/CYP1B1 ([2]; 10 μM DOX 24 h): induced an increase
caspase activity in the liver tissues ([4]; DOX 10 mg per kg i.v., FIG. 11): induced an upregulation
CYP1A/CYP1B activity in the liver tissues ([5]; DOX 10 mg per kg i.v., FIG. 12): induced an upregulation
Structure (SMILES): COc1cccc2c1C(=O)c1c(O)c3c(c(O)c1C2=O)C[C@@](O)(C(=O)CO)C[C@@H]3O[C@H]1C[C@H](N)[C@H](O)[C@H](C)O1 [DOX, doxorubicin]
cell survival rate (AML12 cells; 10 μM DOX alone 24 h): lowest survival rate
tumor volume (B16F1 tumor): lower tumor volumes up to at least 9 days
ALT activity in blood serum ([3]; DOX 10 mg per kg i.v., FIG. 10): induced an upregulation
liver morphology (hepatotoxicity) (liver tissues; DOX 10 mg per kg i.v.): induced moderate cholestasis, focal necrosis, and mononuclear infiltration of sinusoids

bilirubin concentration in blood serum (bilirubin in blood serum): induced an upregulation
caspase 3 activation in liver tissues [7]: induced caspase 3 activation
Structure (SMILES): CN(C)/N=N/c1[nH]cnc1C(N)=O [DTIC, dacarbazine]
ALT activity in blood serum [6]: induced an upregulation

DOX-induced upregulation of CYP1A1/CYP1B1 after pretreatment [2, 11]: suppressed the upregulation
Structure (SMILES): C[S+]([O-])CCCCN=C=S (stereo not shown) [SFN, sulforaphane]
GST activity [8]: equaled the GST activity in the cells treated with SFN-loaded MIL-88A
apoptosis / cell survival after pretreatment (AML12 cells; [11]): significantly decreased apoptosis
caspase activity after pretreatment [1, 11]: significantly decreased
GST expression in B16F1 melanoma tumor tissues [9]: neither SFN nor MIL-88A-SFN strongly affected
DOX-induced upregulation of ALT activity after pretreatment ([3]; 3 mg SFN per kg day 0, DOX 10 mg per kg day 1, FIG. 10): attenuated the upregulation
DOX-induced upregulation of liver caspase activity after pretreatment ([4]; 3 mg SFN per kg day 0, DOX 10 mg per kg day 1, FIG. 11): but not SFN, attenuated the upregulation
DOX-induced upregulation of liver CYP1A/CYP1B activity after pretreatment ([5]; 3 mg SFN per kg day 0, DOX 10 mg per kg day 1, FIG. 12): but not SFN, attenuated the upregulation
DOX-induced liver pathology after pretreatment (liver tissues; 3 mg SFN per kg day 0, DOX 10 mg per kg day 1): attenuated the aforementioned symptoms of hepatotoxicity
expression of phase 2 enzymes GSTP1 and GSTA3 ([10]; 24 h, vs untreated cells): upregulation
expression of NQO1 [10]: enhanced expression
